Experimental data: patent publication US11384075B2, “Quinolinone compounds” (Janssen Pharmaceutica NV, priority 2017, dated 2022)

How the values were obtained:
[1] = target: T1, human FGFR3 V555M enzyme (cytoplasmic domain carrying V555M mutation) (Homo sapiens, UniProt P22607, V555M); experiment: FGFR3 V555M mobility shift assay (enzymatic assay); assay type: biochemical; details: 30 μM ATP, 45 minutes at 30° C., Caliper EZ reader II
T1 construct: human FGFR3 V555M enzyme (cytoplasmic domain carrying V555M mutation, from Carna Biosciences); purchased Carna Biosciences
Method in brief: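 Cytoplasmic-domain FGFR3 V555M (0.04 ng/μL) with 30 μM ATP and 1 μM FL-peptide 30 in HEPES pH 7.4/MgCl2/Brij35/DTT, 1% DMSO, 45 min at 30 °C, EDTA-stopped. Mobility-shift read of substrate-product conversion; 10-point 4× dilution from 10 μM fitted for IC50/pIC50.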

[2] = target: T2, NIH/3T3 cells overexpressing FGFR3 V555M-TACC3 fusion protein (Homo sapiens, UniProt P22607, V555M, cells depend on it); experiment: NIH/3T3 FGFR3 V555M-TACC3 cell proliferation assay; assay type: cell-based; details: 72-hr incubation, CellTiter Glo, starting with 10 μM; read-out: NIH/3T3 FGFR3 V555M-TACC3 CTG (IC50)
T2 construct: NIH/3T3 FGFR3 V555M-TACC3 CTG (IC50); other: 72-hr incubation, CellTiter Glo, starting with 10 μM; fused on or other part: Q9Y6A5 (Transforming acidic coiled-coil-containing protein 3)
Method in brief: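 NIH/3T3 cells overexpressing FGFR3 V555M-TACC3 fusion, 30,000/well in DMEM/10% FBS, treated for 72 h at 37 °C with 9 doses (4× dilutions from 10 μM top, 0.1% DMSO). CellTiter-Glo luminescence normalised to % survival; IC50, pIC50 and Hill slope from concentration-response fits.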

[3] = tested on: NIH/3T3 cells overexpressing FGFR3 WT-TACC3 fusion protein; experiment: NIH/3T3 FGFR3 WT-TACC3 cellular phospho-ERK assay (in vitro PD assay); assay type: cell-based; details: Mus musculus, NIH3T3; 1-hr incubation, AlphaLISA SureFire Ultra p-ERK1/2 (Thr202/Tyr204); read-out: NIH/3T3 FGFR3 WT-TACC3 pERK (IC50)
Protocol: NIH/3T3 FGFR3 WT-TACC3 Cellular Phospho-ERK Assay (In Vitro PD Assay)
(§1) 50 μL of cell suspension (NIH/3T3 cells overexpressing FGFR3 WT-TACC3 fusion protein) (total 10,000 cells per well in growth medium (DMEM containing 1% Glutamax, 10% FBS and 1% Pen/Strep)) was seeded in a 384-well plate. After overnight incubation at 37° C. and 5% CO2, 5.5 μL of growth medium containing 10× testing compound was added into cell cultures (10 dose points with 4× serial dilution, starting with 10 μM, 0.1% DMSO final). After 1-hr incubation at 37° C. and 5% CO2, the medium was depleted and AlphaLISA SureFire Ultra p-ERK1/2 (Thr202/Tyr204) Assay Kit (from PerkinElmer) was applied for phospho-ERK level detection according to the kit instructions. The RFUs (relative fluorescence units were measured on EnVision microplate reader (ex. 680 nm, em. 615 nm) and concentration-response curve was plotted using Prism to calculate IC50 (M), pIC50 (−log IC50) and HillSlope value.

[4] = tested on: NIH/3T3 cells overexpressing FGFR3 V555M-TACC3 fusion protein; experiment: NIH/3T3 FGFR3 V555M-TACC3 cellular phospho-ERK assay (in vitro PD assay); assay type: cell-based; details: Mus musculus, NIH3T3; 1-hr incubation, AlphaLISA SureFire Ultra p-ERK1/2 (Thr202/Tyr204); read-out: NIH/3T3 FGFR3 V555M-TACC3 pERK (IC50)
Protocol: NIH/3T3 FGFR3 V555M-TACC3 Cellular Phospho-ERK Assay (In Vitro PD Assay)
as §1, with “V555M-TACC3” for “WT-TACC3”

T1 sequence (P22607 397-806 V555M limits assumed): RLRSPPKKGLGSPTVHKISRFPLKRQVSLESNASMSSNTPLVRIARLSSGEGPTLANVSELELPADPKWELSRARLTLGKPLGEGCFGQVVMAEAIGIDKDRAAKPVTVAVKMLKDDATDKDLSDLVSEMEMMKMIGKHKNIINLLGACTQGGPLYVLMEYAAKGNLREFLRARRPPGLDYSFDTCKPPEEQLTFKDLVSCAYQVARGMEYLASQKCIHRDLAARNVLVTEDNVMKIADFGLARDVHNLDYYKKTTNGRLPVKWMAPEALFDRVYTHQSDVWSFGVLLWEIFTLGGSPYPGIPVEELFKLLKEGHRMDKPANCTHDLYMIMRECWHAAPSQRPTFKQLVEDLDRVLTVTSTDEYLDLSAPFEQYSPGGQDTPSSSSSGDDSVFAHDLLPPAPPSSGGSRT
T2 sequence (P22607 whole entry V555M, the tested form may be a part): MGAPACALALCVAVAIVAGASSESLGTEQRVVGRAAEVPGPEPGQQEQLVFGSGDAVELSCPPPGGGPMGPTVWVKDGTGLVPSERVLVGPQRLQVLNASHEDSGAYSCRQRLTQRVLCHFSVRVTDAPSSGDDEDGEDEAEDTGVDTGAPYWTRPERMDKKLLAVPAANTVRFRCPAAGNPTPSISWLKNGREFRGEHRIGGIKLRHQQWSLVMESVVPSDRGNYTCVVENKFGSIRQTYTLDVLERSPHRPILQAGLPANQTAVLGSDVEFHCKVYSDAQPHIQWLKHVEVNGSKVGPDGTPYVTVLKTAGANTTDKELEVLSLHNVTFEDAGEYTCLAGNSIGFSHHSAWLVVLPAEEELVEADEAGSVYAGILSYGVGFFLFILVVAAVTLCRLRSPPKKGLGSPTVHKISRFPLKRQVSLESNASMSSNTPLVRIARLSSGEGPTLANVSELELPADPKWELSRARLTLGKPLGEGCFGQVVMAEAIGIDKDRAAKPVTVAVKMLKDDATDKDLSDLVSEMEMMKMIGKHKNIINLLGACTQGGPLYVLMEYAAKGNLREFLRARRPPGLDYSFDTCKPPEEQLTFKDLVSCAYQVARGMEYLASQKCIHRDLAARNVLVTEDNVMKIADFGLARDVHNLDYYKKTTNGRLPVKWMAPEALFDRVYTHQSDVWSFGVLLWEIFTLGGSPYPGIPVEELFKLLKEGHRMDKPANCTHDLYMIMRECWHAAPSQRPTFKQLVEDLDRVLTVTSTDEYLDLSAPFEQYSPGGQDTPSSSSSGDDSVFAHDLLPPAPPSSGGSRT

| SMILES | IC50 [1] [nM] | GI50 [2] [nM] | IC50 [3] [nM] | IC50 [4] [nM] |
| --- | --- | --- | --- | --- |
| C[C@H](Nc1c(-c2nc3ccc(N4CCOCC4)cc3[nH]2)c(=O)[nH]c2ccccc12)c1ncccn1 [Compound 2, (S)-3-(6-morpholino-1H-benzo[d]imidazol-2-yl)-4-((1-(pyrimidin-2-yl)ethyl)amino)-quinolin-2(1H)-one] | 0.213 | 4.89 | 1.24 | 0.946 |
| C[C@@H]1CN(c2ccc3nc(-c4c(N[C@@H](C)c5ccccn5)c5ccccc5[nH]c4=O)[nH]c3c2)C[C@H](C)O1 [Compound 4, 3-(6-((2S,6R)-2,6-dimethylmorpholino)-1H-benzo[d]imidazol-2-yl)-4-(((S)-1-(pyridin-2-yl)ethyl)amino)quinolin-2(1H)-one] | 1.34 | 42.7 | 3.87 | 1.09 |
| C[C@@H]1CN(c2ccc3nc(-c4c(N[C@@H](C)c5ccccn5)c5ccccc5[nH]c4=O)[nH]c3c2)C[C@@H](C)O1 [Compound 21, 3-(6-((2R,6R)-2,6-dimethylmorpholino)-1H-benzo[d]imidazol-2-yl)-4-(((S)-1-(pyridin-2-yl)ethyl)amino)quinolin-2(1H)-one] | 2.75 | 48.8 | 8.41 | 2.35 |
| C[C@H](Nc1c(-c2nc3ccc(N4CCOCC4)c(F)c3[nH]2)c(=O)[nH]c2ccccc12)c1ccccn1 [Compound 24, (S)-3-(7-fluoro-6-morpholino-1H-benzo[d]imidazol-2-yl)-4-((1-(pyridin-2-yl)ethyl)-amino)quinolin-2(1H)-one] | 0.929 | 39.4 | 13.3 | 0.959 |
